In US20190290729A1, “PHARMACEUTICAL ASSOCIATION OF GROWTH FACTOR RECEPTOR AGONIST AND ADHESION PROTEIN INHIBITOR FOR CONVERTING A NEOPLASTIC CELL INTO A NON-NEOPLASTIC CELL AND USES THEREOF” (HISTIDE AG, priority 2015, published 2019):
Where no end group is shown, it is not given here.

Legend:
MG63 cells [1] = assay: p53 protein expression level, immunofluorescence staining quantified with ImageJ, osteosarcoma cells; assay type: cell-based, human; parameters: P53: unit not given here; details: for p53 (%): Table 4, cyclic GFR-binding peptide in association with SiRNA Integrin alpha 3 and SiRNA Integrin beta 1, 400 ng/mL, 24 hours; for P53: Table 9, in association with SiRNA Integrin alpha 3+SiRNA Integrin beta 1 (SEQ ID NO: 141 to 163)
Procedure: (§1) The following starting materials and reagents were used: • Type-I collagen sponge was obtained from Sigma®. • PBS 1× was obtained from Gibco®. • MilliQ water: is water characterised in terms of resistivity (typically 18.2 MΩ·cm at 25° C.). • Low glucose Dulbecco's Modified Eagle Medium (DMEM) was obtained from Invitrogen® • Minimum Essential Medium Eagle without ascorbic acid (αMEM) was obtained from Invitrogen®. • All of the cell culture experiments were carried out without any serum in the medium for the first 8 hours of culture. • Osteosarcoma cells: MG63 cells were obtained from ATCC®. These cells were cultured in DMEM (Eagle's Minimum Essential Medium) medium supplemented with 10% fetal calf serum (FCS) and 1% penicillin/streptomycin. All cells were used at a low passage number (passage 10), were subconfluently cultured and were seeded at 10^4 cells/cm^2 for the purpose of the experiments. • Chondrosarcoma cells Hs819.T cells were obtained from ATCC®. These cells were cultured in DMEM (Eagle's Minimum Essential Medium) medium supplemented with 10% fetal calf serum (FCS) and 1% penicillin/streptomycin. All cells were used at a low passage number (passage 10), were subconfluently cultured and were seeded at 10^4 cells/cm^2 for the purpose of the experiments. • Rhabdomyosarcoma cells: A-673 cells were obtained from ATCC®. These cells were cultured in DMEM (Eagle's Minimum Essential Medium) medium supplemented with 10% fetal calf serum (FCS) and 1% penicillin/streptomycin. All cells were used at a low passage number (passage 10), were subconfluently cultured and were seeded at 10^4 cells/cm^2 for the purpose of the experiments. • Adenocarcinoma cells: HCC4006 cells were obtained from ATCC®. These cells were cultured in RPMI-1640 medium (obtained from ATCC®) supplemented with 10% fetal calf serum (FCS) and 1% penicillin/streptomycin. All cells were used at a low passage number (passage 10), were subconfluently cultured and were seeded at 10^4 cells/cm^2 for the purpose of the experiments. • CMFDA is a Cell Tracker Green obtained from Invitrogen®. • DAPI was obtained from Sigma®. • Fetal bovine serum (FBS) was obtained from Gibco®. • Penicillin/streptomycin was obtained from Invitrogen®. • The AlamarBlue® assay was obtained from Molecular Probes®. • Anti phospho-p53 antibody was obtained from Santa Cruz Biotechnology®, • Anti pRB antibody was obtained from Santa Cruz Biotechnology®, • Monoclonal anti-integrin (extracellular domain) αv, α5, α3, α4, β1, β3, β5 and β9 antibodies were obtained from Santa Cruz Biotechnology®, • Cell cytoskeletal filamentous actin (F-actin) was visualized by Alexa Fluor® 488 phalloidin Sigma® labeling. • Monoclonal anti-vinculin antibody (clone hVIN-1, produced in mouse) was obtained from Sigma®.
(§2) • All of the peptides were synthetized using conventional solution and/or solid phase peptide synthesis methods. • All of the experiments were performed with a concentration of 400 ng/mL of GFR-binding compound(s) as defined herein. • All cell culture experiments were performed with cultures on plastic coated with type-I collagen in order to mimic the physiological conditions of the human body. • The compositions of pharmaceutical compositions used in the examples below are summarized in the following table:
(§3) The cells were first fixed for 20 min with 4% paraformaldehyde/PBS at 4° C. After fixation, the cells were permeabilized in PBS containing 1% Triton X-100 for 15 min. Protein immunofluorescent visualization was performed by first treating the cells with 1% (v/v) specific monoclonal antibodies for 1 hour at 37° C. Then the samples were incubated with Alexa Fluor® 568 or 647 (F(ab′)2 fragment of IgG(H+L)) during 30 min at room temperature. The cell nuclei were counterstained in 20 ng/mL DAPI for 10 min at room temperature.
(§4) For this type of quantification the freeware image analysis ImageJ® software was used. […]

MG63 cells [2] = assay: pRB phosphorylation level, immunofluorescence staining quantified with ImageJ, osteosarcoma cells; assay type: cell-based, human; details: for pRB: Table 9, in association with SiRNA Integrin alpha 3+SiRNA Integrin beta 1 (SEQ ID NO: 141 to 163)
Procedure: as §1, §2, §3, §4

[3] = system: human rhabdosarcoma cells; assay: pRB quantification, same procedure, rhabdosarcoma cells; assay type: cell-based; details: for pRB: Table 9, in association with SiRNA Integrin alpha 3+RGDSPC+SiRNA Integrin beta 1+SiRNA Syndecan 1 (SEQ ID NO: 31, 32, 164 to 187)
Procedure: as §1, §2, §3, §4

[4] = system: human rhabdosarcoma cells; assay: p53 quantification, same procedure, rhabdosarcoma cells; assay type: cell-based; parameters: P53: unit not given here; details: for P53: Table 9, in association with SiRNA Integrin alpha 3+RGDSPC+SiRNA Integrin beta 1+SiRNA Syndecan 1 (SEQ ID NO: 31, 32, 164 to 187)
Procedure: as §1, §2, §3, §4

[5] = Table 4, MG63 cells, cyclic GFR-binding peptide in association with SiRNA Integrin alpha 3 and SiRNA Integrin beta 1, 400 ng/mL, 24 hours
[6] = Table 7, human osteosarcoma cells, MG63, GFR-binding compound within pharmaceutical association
[7] = Table 8, in association with SiRNA Integrin alpha 3, v, 4 and SiRNA Integrin beta 1
[8] = Table 5, cyclic GFR-binding peptide in association with SiRNA Integrin alpha 3+RGDSPC+SiRNA Integrin beta 1+SiRNA Syndecan 1, 400 ng/mL

APTGGSATSMLYYDKGVVTYLRKHRGGVVKDKGVVTY (also: cyclic, ring not given here) [SEQ ID NO: 38204]
p53 (%) (MG63 cells [1]): 37% | pRB (%) (MG63 cells [2]; [5]): 11%

APTLLNAISMLYFNDKQQIILKKYRLLVVRNDKQQII (also: cyclic, ring not given here) [SEQ ID NO: 38203]
p53 (%) (MG63 cells [1]): 44% | pRB (%) (MG63 cells [2]; [5]): 12%

APVAAKPLSMLYVDKGVVTYDHHKDAAVEEDEYDKVV (also: cyclic, ring not given here) [SEQ ID NO: 38209]
p53 (%) (MG63 cells [1]): 38% | pRB (%) (MG63 cells [2]; [5]): 11%

ASASPSSVPQDLEPLTILYYVGRTPKVEQLSNMV (Non-cyclic GFR-binding peptide) [SEQ ID NO: 55]
pRB (%) (MG63 cells [2]; [6]): 17%

CAPTKLSAISMLYLDSSNNVILKNYQ (Non-cyclic GFR-binding peptide) [SEQ ID NO: 154]
P53 (MG63 cells [1]): 40 | pRB (MG63 cells [2]; MG63 cells): 14

CAPTQLSPISVLYKDDSSNVILKYHYTLEDH (Non-cyclic GFR-binding peptide) [SEQ ID NO: 148]
P53 (MG63 cells [1]): 42 | pRB (MG63 cells [2]; MG63 cells): 9

CASAAPSSVPQKLNAISMLYFVGRKPKVLKKYRMIVRS (Non-cyclic GFR-binding peptide) [SEQ ID NO: 157]
P53 (MG63 cells [1]): 34 | pRB (MG63 cells [2]; MG63 cells): 11

CASASPSSVSQDLNAISVLYFIGKTPKILKKYRMIVKSSKSS (Non-cyclic GFR-binding peptide) [SEQ ID NO: 145]
P53 (MG63 cells [1]): 38 | pRB (MG63 cells [2]; MG63 cells): 6

CASASPSSVSQDLSAISTLYLIGKTPKILKNYQMIVKSSKSS (Non-cyclic GFR-binding peptide) [SEQ ID NO: 143]
P53 (MG63 cells [1]): 37 | pRB (MG63 cells [2]; MG63 cells): 14

CASSAVSQELSAISMLYLGGGLKNYQDM (Non-cyclic GFR-binding peptide) [SEQ ID NO: 155]
P53 (MG63 cells [1]): 47 | pRB (MG63 cells [2]; MG63 cells): 6

CAVPKASSAPTKLSATSVLYYDSSNNVVLRKHRNMVVK (Non-cyclic GFR-binding peptide) [SEQ ID NO: 146]
P53 (MG63 cells [1]): 38 | pRB (MG63 cells [2]; MG63 cells): 11

CGGGSSVPTELSAISTLYLDDYDKVILKKYRNM (Non-cyclic GFR-binding peptide) [SEQ ID NO: 161]
P53 (MG63 cells [1]): 52 | pRB (MG63 cells [2]; MG63 cells): 10

CKASSVPTELSPISTLYKDENEKVVLKYHYDMVVEGSGSR (Non-cyclic GFR-binding peptide) [SEQ ID NO: 156]
P53 (MG63 cells [1]): 45 | pRB (MG63 cells [2]; MG63 cells): 8

CKIPKASSVPTELNAISVLYFDENEKVILKKYRDMVVEGSG (Non-cyclic GFR-binding peptide) [SEQ ID NO: 144]
P53 (MG63 cells [1]): 40 | pRB (MG63 cells [2]; MG63 cells): 7

CKVGKASSVPTKLNAISTLYLDDSSNVILKNYQ (Non-cyclic GFR-binding peptide) [SEQ ID NO: 160]
P53 (MG63 cells [1]): 38 | pRB (MG63 cells [2]; MG63 cells): 8

CKVGKASSVPTKLNAISTLYLDENEKVVLKKYREGMS (Non-cyclic GFR-binding peptide) [SEQ ID NO: 158]
P53 (MG63 cells [1]): 39 | pRB (MG63 cells [2]; MG63 cells): 9

CKVGKASSVPTKLSAISTLYLDDMGVPTLKNYQNMVVRASGSH (Non-cyclic GFR-binding peptide) [SEQ ID NO: 142]
P53 (MG63 cells [1]): 36 | pRB (MG63 cells [2]; MG63 cells): 8

CKVPKASSVPTELSAISTLYLAAAALKNYQEM (Non-cyclic GFR-binding peptide) [SEQ ID NO: 152]
P53 (MG63 cells [1]): 37 | pRB (MG63 cells [2]; MG63 cells): 8

CKVPKPSSAPTQLSAISTLYLDEYDKVVLKNYQNMVVRA (Non-cyclic GFR-binding peptide) [SEQ ID NO: 141]
P53 (MG63 cells [1]): 41 | pRB (MG63 cells [2]; MG63 cells): 11

CPKPSSAPTQLNAISMLYFGGGGGGGLKKYRNMVVRA (Non-cyclic GFR-binding peptide) [SEQ ID NO: 151]
P53 (MG63 cells [1]): 39 | pRB (MG63 cells [2]; MG63 cells): 9

NDEGLECVPTEERPVQVRKIRIKPHQGQKKATVFLQHNK [SEQ ID NO: 54] (Non-cyclic GFR-binding peptide)
pRB (%) (MG63 cells [2]; [6]): 12%

NDEGLECVPTEERPVQVRKIRIKPHQGQKKATVFLQHNK [SEQ ID NO: 59] (Non-cyclic GFR-binding peptide)
pRB (%) (MG63 cells [2]; [6]): 22%

RNVQCRPTQLEPLPIVYYEIVRKKPEQLSNTLEDHLA [SEQ ID NO: 56] (Non-cyclic GFR-binding peptide)
pRB (%) (MG63 cells [2]; [6]): 21%

RNVQCRPTQLEPLPIVYYEIVRKKPEQLSNTLEDHLA [SEQ ID NO: 61] (Non-cyclic GFR-binding peptide)
pRB (%) (MG63 cells [2]; [6]): 18%

VPQQQEPLTTLYYDEYDKVVEQLSNQQVKS (Non-cyclic GFR-binding peptide) [SEQ ID NO: 134]
pRB (%) [3, 7]: 8% | P53 (%) [4, 7]: 50%

VPTAAEPISMLYLDEYDKVVKFKYEAAAVS (Non-cyclic GFR-binding peptide) [SEQ ID NO: 129]
pRB (%) [3, 7]: 20% | P53 (%) [4, 7]: 42%

VPTAAEPLTMLYYEIVRKKPIFEQLSNMVEHSDDMGVPT (also: cyclic peptide) [SEQ ID NO: 38223]
pRB (%) [3, 8]: 17% | P53 (%) [4, 8]: 44%

VPTAASAISILYLDAANNVVLKNYQAAVVE (Non-cyclic GFR-binding peptide) [SEQ ID NO: 123]
pRB (%) [3, 7]: 11% | P53 (%) [4, 7]: 32%

VPTDDSATSTLYYDKGVVTYLRKHRDDEHS (Non-cyclic GFR-binding peptide) [SEQ ID NO: 137]
pRB (%) [3, 7]: 12% | P53 (%) [4, 7]: 42%

VPTGGEPLTTLYYNDKQQIIEQLSNGGEHS (Non-cyclic GFR-binding peptide) [SEQ ID NO: 138]
pRB (%) [3, 7]: 20% | P53 (%) [4, 7]: 45%

VPTMMSNITTQIMRIKPHQGQHIGEMSMMQHN (Non-cyclic GFR-binding peptide) [SEQ ID NO: 135]
pRB (%) [3, 7]: 16% | P53 (%) [4, 7]: 48%

VPTSSSPISTLYIDKGVVTYLKYHYSSVAE (Non-cyclic GFR-binding peptide) [SEQ ID NO: 128]
pRB (%) [3, 7]: 21% | P53 (%) [4, 7]: 36%

VPTVVSAISTLYLRIKPHQGQHLKNYQVVVVE (Non-cyclic GFR-binding peptide) [SEQ ID NO: 125]
pRB (%) [3, 7]: 9% | P53 (%) [4, 7]: 42%

VPTVVSPISMLYIDDMGVPTYKQYEVVVVE (Non-cyclic GFR-binding peptide) [SEQ ID NO: 131]
pRB (%) [3, 7]: 12% | P53 (%) [4, 7]: 36%

VSQAARPVQTRKIDDMGVPTKKATVAAVKSDDMGVPT (also: cyclic peptide) [SEQ ID NO: 38220]
pRB (%) [3, 8]: 9% | P53 (%) [4, 8]: 42%

VSQDLSAISTLYLKIVRKEPLKNYQEMVEE (Non-cyclic GFR-binding peptide) [SEQ ID NO: 58]
pRB (%) (MG63 cells [2]; [6]): 19%

WWFWGASSAVSQELSAISMLYLGGGLKNYQDMQHN (Non-cyclic GFR-binding peptide) [SEQ ID NO: 171]
pRB [3]: 8 | P53 [4]: 47

WWFWGKASSVPTELSPISTLYKDENEKVVLKYHYDMVVEGSGSR (Non-cyclic GFR-binding peptide) [SEQ ID NO: 170]
pRB [3]: 7 | P53 [4]: 44
